Numbers after ± are expanded uncertainties.
assay: refractive index (Na D-line) (dimensionless); conditions: 298.15 K; 100 kPa; Liquid; Standard Abbe refractometry

refractive index | Structure (SMILES)
1.53876 ± 0.00037 | OCc1ccccc1 [benzenemethanol]
1.39852 ± 0.00037 | CC(=O)OCCC(C)C [3-methylbutyl ethanoate]
1.47713 ± 0.00033 | C[S+](C)[O-] [dimethyl sulfoxide]
